Data reported in the supplement of paper PMC10307832.

How the values were obtained:
Experiment in all cases: relative viability (nuclei count vs DMSO), 5 days (fraction); higher = more cells survive
NCI-H2126 = system: NCI-H2126
How it was run: (§1)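 After 5 days of treatment, lung cancer cells in 1536-well plates were fixed and stained in a single step (final 0.05% Triton X-100, 1% formaldehyde, 1 ug/ml Hoechst) and their nuclei counted on 4× images. Treatment had been applied by pin tool the day after seeding as one drug alone or as a fixed anchor-drug dose with five library-drug doses (not always all listed) in √10 steps. Relative viability is the nuclei count of treated wells divided by that of vehicle wells, and values are medians of duplicate plates.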

LCLC-103H = system: LCLC-103H
How it was run: as §1

SW 1573 = system: SW 1573
How it was run: as §1

HCC-78 = system: HCC-78
How it was run: as §1

EMC-BAC-2 = system: EMC-BAC-2
How it was run: as §1

LU99A = system: LU99A
How it was run: as §1

NCI-H1563 = system: NCI-H1563
How it was run: as §1

LK-2 = system: LK-2
How it was run: as §1

ChaGo-K-1 = system: ChaGo-K-1
How it was run: as §1

NCI-H23 = system: NCI-H23
How it was run: as §1

NCI-H3122 = system: NCI-H3122
How it was run: as §1

RERF-LC-KJ = system: RERF-LC-KJ
How it was run: as §1

C=C1C(=O)O[C@@H](CCCCCCCC)[C@@H]1C(=O)O [C-75] + N=C(N)NC(=N)NCCc1ccccc1 [Phenformin] (partner 250 µM)
relative viability (NCI-H2126; first compound 0.8 µM): 0.501 | relative viability (NCI-H2126; first compound 2.53 µM): 0.48 | relative viability (NCI-H2126; first compound 8 µM): 0.515 | relative viability (LCLC-103H; first compound 0.08 µM): 0.325 | relative viability (LCLC-103H; first compound 0.253 µM): 0.35 | relative viability (LCLC-103H; first compound 0.8 µM): 0.311 | relative viability (LCLC-103H; first compound 2.53 µM): 0.253 | relative viability (LCLC-103H; first compound 8 µM): 0.389 | relative viability (SW 1573; first compound 0.08 µM): 0.462 | relative viability (SW 1573; first compound 0.253 µM): 0.351 | relative viability (SW 1573; first compound 0.8 µM): 0.376 | relative viability (SW 1573; first compound 2.53 µM): 0.381 | relative viability (SW 1573; first compound 8 µM): 0.244 | relative viability (HCC-78; first compound 0.08 µM): 0.844 | relative viability (HCC-78; first compound 0.253 µM): 0.849 | relative viability (HCC-78; first compound 0.8 µM): 0.544 | relative viability (HCC-78; first compound 2.53 µM): 0.595 | relative viability (HCC-78; first compound 8 µM): 0.625 | relative viability (EMC-BAC-2; first compound 0.08 µM): 0.58 | relative viability (EMC-BAC-2; first compound 0.253 µM): 0.478 | relative viability (EMC-BAC-2; first compound 0.8 µM): 0.48 | relative viability (EMC-BAC-2; first compound 2.53 µM): 0.42 | relative viability (EMC-BAC-2; first compound 8 µM): 0.448 | relative viability (LU99A; first compound 0.08 µM): 0.848 | relative viability (LU99A; first compound 0.253 µM): 0.863 | relative viability (LU99A; first compound 0.8 µM): 0.816 | relative viability (LU99A; first compound 2.53 µM): 0.749 | relative viability (LU99A; first compound 8 µM): 0.641 | relative viability (NCI-H1563; first compound 0.08 µM): 0.656 | relative viability (NCI-H1563; first compound 0.253 µM): 0.64 | relative viability (NCI-H1563; first compound 0.8 µM): 0.655 | relative viability (NCI-H1563; first compound 2.53 µM): 0.63 | relative viability (NCI-H1563; first compound 8 µM): 0.691 | relative viability (LK-2; first compound 0.08 µM): 0.519 | relative viability (LK-2; first compound 0.253 µM): 0.537 | relative viability (LK-2; first compound 0.8 µM): 0.484 | relative viability (LK-2; first compound 2.53 µM): 0.226 | relative viability (LK-2; first compound 8 µM): 0.273 | relative viability (ChaGo-K-1; first compound 0.08 µM): 0.461 | relative viability (ChaGo-K-1; first compound 0.253 µM): 0.538 | relative viability (ChaGo-K-1; first compound 0.8 µM): 0.453 | relative viability (ChaGo-K-1; first compound 2.53 µM): 0.414 | relative viability (ChaGo-K-1; first compound 8 µM): 0.494 | relative viability (NCI-H23; first compound 0.08 µM): 0.775 | relative viability (NCI-H23; first compound 0.253 µM): 0.758 | relative viability (NCI-H23; first compound 0.8 µM): 0.773 | relative viability (NCI-H23; first compound 2.53 µM): 0.582 | relative viability (NCI-H23; first compound 8 µM): 0.643 | relative viability (NCI-H3122; first compound 0.08 µM): 0.405 | relative viability (NCI-H3122; first compound 0.253 µM): 0.406 | relative viability (NCI-H3122; first compound 0.8 µM): 0.384 | relative viability (NCI-H3122; first compound 8 µM): 0.408 | relative viability (RERF-LC-KJ; first compound 0.08 µM): 0.427 | relative viability (RERF-LC-KJ; first compound 0.253 µM): 0.452 | relative viability (RERF-LC-KJ; first compound 0.8 µM): 0.398 | relative viability (RERF-LC-KJ; first compound 2.53 µM): 0.469 | relative viability (RERF-LC-KJ; first compound 8 µM): 0.405
